In patent US11000033B2, “Ketone or oxime compound, and herbicide” (NISSAN CHEMICAL CORPORATION, priority 2014, dated 2021):

Columns and labels:
Format in all cases: in vivo
[1] = tested on: transplanted rice plant; assay: Test Example 1: effect on crop, application before weed generation in submerged conditions (symbol a); conditions: application herbicide amount 320 g/ha
Procedure, shortened: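 Rice at 2.5 leaf stage transplanted into submerged soil (4 cm depth) sown with three weed species; herbicide applied before weed emergence.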

[2] = tested on: Scirpus juncoides; assay: Test Example 2: herbicidal activity, application during weed generation in submerged conditions (symbol B); conditions: Table 23; application herbicide amount 320 g/ha; grade 0-5 by criteria of Test Example 1
Procedure, shortened: (§1)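 Paddy pot test, submerged (4 cm water), alluvial soil, mixed sowing; greenhouse 25–30° C. Emulsion formulation diluted to predetermined rate, applied onto floodwater at 1–2 leaf stage. Visual herbicidal rating at 3 wk post-treatment.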

[3] = tested on: Monochoria vaginalis; assay: Test Example 2: herbicidal activity, application during weed generation in submerged conditions (symbol C); conditions: Table 23; application herbicide amount 320 g/ha; grade 0-5 by criteria of Test Example 1
Procedure, shortened: as §1

[4] = tested on: Echinochloa crus-galli var. crus-galli; assay: Test Example 3: herbicidal effect by foliage application, Wagner pot (symbol H); conditions: application herbicide amount 320 g/ha; for H (Echinochloa crus-galli var. crus-galli) herbicidal effect grade: Table 24
Procedure, shortened: (§2)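 Foliar spray of water-diluted emulsion formulation at a predetermined herbicide amount onto 14-day-old plants in flooded alluvial soil (water depth 0.1–0.5 cm), greenhouse 25–30 °C; rice sown alongside. Scored 3 wk post-application on set criteria.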

[5] = tested on: Leptochloa chinensis; assay: Test Example 3: herbicidal effect by foliage application, Wagner pot (symbol D); conditions: application herbicide amount 320 g/ha; for D (Leptochloa chinensis) herbicidal effect grade: Table 24
Procedure, shortened: as §2

[6] = tested on: Cyperus difformis; assay: Test Example 3: herbicidal effect by foliage application, Wagner pot (symbol E); conditions: application herbicide amount 320 g/ha; for E herbicidal effect grade: Table 24
Procedure, shortened: as §2

[7] = tested on: directly sowed rice plant; assay: Test Example 3: effect on crop by foliage application, Wagner pot (symbol b); conditions: application herbicide amount 320 g/ha; for b (directly sowed rice plant) effect on crop grade: Table 24
Procedure, shortened: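 Plants are raised from seed in flooded paddy conditions: water stands 0.1–0.5 cm over alluvial soil, and the pot is kept in a greenhouse at 25–30 °C. Species sown are barnyardgrass (E. crus-galli var. crus-galli), Leptochloa chinensis, Cyperus difformis and rice.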

[8] = tested on: Echinochloa crus-galli var. crus-galli; assay: Test Example 4: herbicidal effect by soil treatment (symbol H); conditions: application herbicide amount 320 g/ha
Procedure, shortened: (§3)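 Seeds were sown in sterilized diluvial soil, covered with about 1.5 cm of soil, and the soil surface was sprayed with a water-diluted emulsion of the compound at a predetermined rate. Plants grew in a greenhouse at 25° C. to 30° C.; effects were scored visually 3 weeks after application.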

[9] = tested on: Apera spica-venti; assay: Test Example 4: herbicidal effect by soil treatment (symbol L); conditions: application herbicide amount 320 g/ha
Procedure, shortened: as §3

[10] = tested on: Chenopodium album; assay: Test Example 4: herbicidal effect by soil treatment (symbol O); conditions: application herbicide amount 320 g/ha
Procedure, shortened: as §3

[11] = tested on: beet; assay: Test Example 4: effect on crop by soil treatment (symbol f); conditions: application herbicide amount 320 g/ha
Procedure, shortened: (§4)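 Diluvial soil (sterilized) in boxes; seeds placed spot-wise alongside weed species; ~1.5 cm covering soil. Greenhouse, 25–30° C.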

[12] = tested on: rapeseed; assay: Test Example 4: effect on crop by soil treatment (symbol g); conditions: application herbicide amount 320 g/ha
Procedure, shortened: as §4

[13] = tested on: Apera spica-venti; assay: Test Example 5: herbicidal effect by foliage application, plastic box (symbol L); conditions: 320 g/ha, 3 weeks after application
Procedure, shortened: (§5)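 Leaf-applied emulsion, water-diluted to a preset herbicide dose, on two-week-old seedlings raised in a 25° C. to 30° C. greenhouse; injury rated at 3 weeks using earlier criteria.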

[14] = tested on: Abutilon theophrasti; assay: Test Example 5: herbicidal effect by foliage application, plastic box (symbol M); conditions: 320 g/ha, 3 weeks after application
Procedure, shortened: as §5

[15] = tested on: Chenopodium album; assay: Test Example 5: herbicidal effect by foliage application, plastic box (symbol O); conditions: 320 g/ha, 3 weeks after application
Procedure, shortened: as §5

[16] = tested on: Stellaria media; assay: Test Example 5: herbicidal effect by foliage application, plastic box (symbol P); conditions: 320 g/ha, 3 weeks after application
Procedure, shortened: as §5

| SMILES | Effect grade on crop, a: transplanted rice plant [1] | Herbicidal effect grade, B: Scirpus juncoides [2] | Herbicidal effect grade, C: Monochoria vaginalis [3] | Herbicidal effect grade, H: Echinochloa crus-galli var. crus-galli [8] | Herbicidal effect grade, L: Apera spica-venti [9] | Herbicidal effect grade, O: Chenopodium album [10] | Effect on crop grade, f: beet [11] | Effect on crop grade, g: rapeseed [12] | L: Apera spica-venti, herbicidal effect (criteria of Test Example 1) [13] | M: Abutilon theophrasti, herbicidal effect (criteria of Test Example 1) [14] | O: Chenopodium album, herbicidal effect (criteria of Test Example 1) [15] | P: Stellaria media, herbicidal effect (criteria of Test Example 1) [16] | H (Echinochloa crus-galli var. crus-galli) herbicidal effect grade [4] | D (Leptochloa chinensis) herbicidal effect grade [5] | E herbicidal effect grade [6] | b (directly sowed rice plant) effect on crop grade [7] | L: Apera spica-venti, herbicidal effect grade [13] | M: Abutilon theophrasti, herbicidal effect grade [14] | O: Chenopodium album, herbicidal effect grade [15] | P: Stellaria media, herbicidal effect grade [16] | further results |
| --- | --- | --- | --- | --- | --- | --- | --- | --- | --- | --- | --- | --- | --- | --- | --- | --- | --- | --- | --- | --- | --- |
| CC(=O)CC1CC(O)=C(c2c(C)cc(-n3cccn3)cc2C)C1=O (stereo not shown) [7-024] | 2 (Herbicidal ratio of 20% or higher and lower than 40%) | 0 (Herbicidal ratio of 5% or lower (almost no effect)) | 0 (Herbicidal ratio of 5% or lower (almost no effect)) | 0 (Herbicidal ratio of 5% or lower (almost no effect)) | 0 (Herbicidal ratio of 5% or lower (almost no effect)) | 0 (Herbicidal ratio of 5% or lower (almost no effect)) | 0 (Herbicidal ratio of 5% or lower (almost no effect)) | 0 (Herbicidal ratio of 5% or lower (almost no effect)) | 1 (Herbicidal ratio of 5% or higher and lower than 20%) | 0 (Herbicidal ratio of 5% or lower (almost no effect)) | 0 (Herbicidal ratio of 5% or lower (almost no effect)) | 0 (Herbicidal ratio of 5% or lower (almost no effect)) | – | – | – | – | – | – | – | – | herbicidal effect on H (Echinochloa crus-galli var. crus-galli), grade 0-5 [4]: 5 (Herbicidal ratio of 90% or more (almost completely withered)); herbicidal effect on D (Leptochloa chinensis), grade 0-5 [5]: 5 (Herbicidal ratio of 90% or more (almost completely withered)); herbicidal effect on E, grade 0-5 [6]: 2 (Herbicidal ratio of 20% or higher and lower than 40%); effect on crop b (directly sowed rice plant), grade 0-5 [7]: 3 (Herbicidal ratio of 40% or higher and lower than 70%) |
| COc1cc(Br)cc(C)c1C1=C(O)CC(CC(C)=O)C1=O (stereo not shown) [7-027, 2-(4-bromo-2-methoxy-6-methylphenyl)-3-hydroxy-5-(2-oxopropyl)cyclopent-2-enone] | 3 (Herbicidal ratio of 40% or higher and lower than 70%) | 0 (Herbicidal ratio of 5% or lower (almost no effect)) | 2 (Herbicidal ratio of 20% or higher and lower than 40%) | 5 (Herbicidal ratio of 90% or more (almost completely withered)) | 5 (Herbicidal ratio of 90% or more (almost completely withered)) | 0 (Herbicidal ratio of 5% or lower (almost no effect)) | 0 (Herbicidal ratio of 5% or lower (almost no effect)) | 0 (Herbicidal ratio of 5% or lower (almost no effect)) | 5 (Herbicidal ratio of 90% or more (almost completely withered)) | 0 (Herbicidal ratio of 5% or lower (almost no effect)) | 0 (Herbicidal ratio of 5% or lower (almost no effect)) | 0 (Herbicidal ratio of 5% or lower (almost no effect)) | 5 (Herbicidal ratio of 90% or more (almost completely withered)) | 5 (Herbicidal ratio of 90% or more (almost completely withered)) | 4 (Herbicidal ratio of 70% or higher and lower than 90%) | 5 (Herbicidal ratio of 90% or more (almost completely withered)) | – | – | – | – | – |
| CC(=O)C1CC(O)=C(c2c(C)cc(C)cc2C)C1=O (stereo not shown) [8-001] | 0 (Herbicidal ratio of 5% or lower (almost no effect)) | 0 (Herbicidal ratio of 5% or lower (almost no effect)) | 0 (Herbicidal ratio of 5% or lower (almost no effect)) | 0 (Herbicidal ratio of 5% or lower (almost no effect)) | 0 (Herbicidal ratio of 5% or lower (almost no effect)) | 0 (Herbicidal ratio of 5% or lower (almost no effect)) | 0 (Herbicidal ratio of 5% or lower (almost no effect)) | 0 (Herbicidal ratio of 5% or lower (almost no effect)) | – | – | – | – | 0 (Herbicidal ratio of 5% or lower (almost no effect)) | 0 (Herbicidal ratio of 5% or lower (almost no effect)) | 0 (Herbicidal ratio of 5% or lower (almost no effect)) | 0 (Herbicidal ratio of 5% or lower (almost no effect)) | 0 (Herbicidal ratio of 5% or lower (almost no effect)) | 0 (Herbicidal ratio of 5% or lower (almost no effect)) | 0 (Herbicidal ratio of 5% or lower (almost no effect)) | 0 (Herbicidal ratio of 5% or lower (almost no effect)) | – |
| CON=C(C)C(=NOC)C1CC(O)=C(c2c(C)cc(C)cc2C)C1=O (stereo not shown) [8-003] | 0 (Herbicidal ratio of 5% or lower (almost no effect)) | 0 (Herbicidal ratio of 5% or lower (almost no effect)) | 0 (Herbicidal ratio of 5% or lower (almost no effect)) | 0 (Herbicidal ratio of 5% or lower (almost no effect)) | 0 (Herbicidal ratio of 5% or lower (almost no effect)) | 0 (Herbicidal ratio of 5% or lower (almost no effect)) | 0 (Herbicidal ratio of 5% or lower (almost no effect)) | 0 (Herbicidal ratio of 5% or lower (almost no effect)) | – | – | – | – | 0 (Herbicidal ratio of 5% or lower (almost no effect)) | 0 (Herbicidal ratio of 5% or lower (almost no effect)) | 0 (Herbicidal ratio of 5% or lower (almost no effect)) | 0 (Herbicidal ratio of 5% or lower (almost no effect)) | 0 (Herbicidal ratio of 5% or lower (almost no effect)) | 0 (Herbicidal ratio of 5% or lower (almost no effect)) | 0 (Herbicidal ratio of 5% or lower (almost no effect)) | 0 (Herbicidal ratio of 5% or lower (almost no effect)) | – |
